# Results reported in US10195185B2, “3-(1H-imidazo[4,5-C]pyridin-2-yl)-1H-pyrazolo[4,3-B]pyridines and therapeutic uses thereof” (Samumed, LLC, priority 2015, dated 2019).
# pEC50: −log10 of the molar value.
# Assays:
# [1] = system: Primary human fibroblasts derived from IPF patients (LL29 cells) treated with TGF-β1; assay: Inhibition of the fibrotic process: αSMA staining in TGF-β1 treated fibroblasts; type: cell-based; details: Fibroblast, 96 h, LL29 fibroblasts treated with TGF-β1, 4 days; for inhibition at 10 µM: read-out: percent inhibition in brackets beside EC50 >10 μM
# Method in brief: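 Potency reflects suppression of TGF-β1-driven αSMA expression in IPF patient fibroblasts over 4 days. Values are EC50s from normalized αSMA-positive cell counts, with % inhibition at 10 μM when EC50 exceeded 10 μM.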
# [2] = system: primary human mesenchymal stem cells (hMSCs); assay: Induction of chondrogenesis in hMSCs (nodule area, Rhodamine B / Nile Red); type: cell-based; details: TGF-β3 as positive control; for Emax: read-out: Max. Activity as % TGF-β3 activity; for EC50: concentration required to induce 50% levels of chondrogenesis, read-out: Conc (nM) of 50% TGF-β3 activity
# Method: Representative compounds were screened using primary human mesenchymal stem cells (hMSCs) to determine their ability to induce chondrogenesis (process by which cartilage is developed).
# Primary human mesenchymal stem cells (hMSCs) were purchased from Lonza (Walkersville, Md.) and expanded in Mesenchymal Stem Cell Growth Media (Lonza). Cells between passage 3 and 6 were used for the experiments.
# Each compound was dissolved in DMSO as a 10 mM stock and used to prepare compound source plates. For the 96 well assay, serial dilution (1:3, 6-point dose-response curves from 2700 nM to 10 nM) and compound transfer was performed using the ECHO 550 (Labcyte, Sunnyvale, Calif.) into 96-well clear bottom assay plates (Greiner Bio-One) with appropriate DMSO backfill for a final DMSO concentration of 0.03%. hMSCs were plated at 20,000 cells/well in 250 μL/well Incomplete Chondrogenic Induction Medium (Lonza; DMEM, dexamethasone, ascorbate, insulin-transferrin-selenium [ITS supplement], gentamycin-amphotericin [GA-1000], sodium pyruvate, proline and L-glutamine). TGF-β3 (10 ng/mL) was used as a positive control for differentiation while negative control wells were treated with 75 nL DMSO for normalization and calculating EC50 values. For the 384 well assay, serial dilution (1:3, 8-point dose-response curves from 5000 nM to 2.2 nM) and compound transfer was performed using the ECHO 550 (Labcyte, Sunnyvale, Calif.) into 384-well clear bottom assay plates (Greiner Bio-One) with appropriate DMSO backfill for a final DMSO concentration of 0.03%. hMSCs were plated at 8,000 cells/well in 80 μL/well Incomplete Chondrogenic Induction Medium (Lonza; DMEM, dexamethasone, ascorbate, insulin-transferrin-selenium [ITS supplement], gentamycin-amphotericin [GA-1000], sodium pyruvate, proline and L-glutamine). TGF-β3 (10 ng/mL) was used as a positive control for differentiation while negative control wells were treated with 25 nL DMSO for normalization and calculating EC50 values. Cells were incubated at 37° C. and 5% CO2 for 6 days. To image chondrogenic nodules, the cells were fixed using 4% formaldehyde (Electron Microscopy Sciences), and stained with 2 μg/mL Rhodamine B (Sigma-Aldrich) and 20 μM Nile Red (Sigma-Aldrich) [Johnson K., et. al, A Stem Cell-Based Approach to Cartilage Repair, Science, (2012), 336(6082), 717-721]. The nodules imaged (25 images per well for 96 well plates and 9 images per well for 384 well plates at 10× magnification) by excitation at 531 nm and emission at 625 nm and quantified using the CellInsight CX5 (Thermo Scientific). Area of nodules in each well was normalized to the average of 3 DMSO treated wells on the same plate using Excel (Microsoft Inc.). The normalized averages (fold change over DMSO) of 2 or 3 replicate wells for each compound concentration were calculated. Due to solubility limitations of some of the compounds, curve fitting was incomplete leading to inaccurate EC50 determinations.
# Using TGF-β3 as a positive control, the concentration of representative compounds required to induce 50% levels of chondrogenesis is reported. In addition, the maximum activity of each compound and the respective dose that each compound reached maximum chondrogenesis activity is reported.
EC50 [2] [nM],SMILES,pEC50 [1],Emax [2] [%],inhibition at 10 µM [1] [%]
,"CC(C)C(=O)Nc1cncc(-c2ccc3[nH]nc(-c4nc5c(-c6cccnc6)nccc5[nH]4)c3n2)c1 [Compound 93, N-(5-(3-(4-(Pyridin-3-yl)-1H-imidazo[4,5-c]pyridin-2-yl)-1H-pyrazolo[4,3-b]pyridin-5-yl)pyridin-3-yl)isobutyramide]",5.70,32,
7,"CCC(=O)Nc1cncc(-c2ccc3[nH]nc(-c4nc5c(-c6cccs6)nccc5[nH]4)c3n2)c1 [Compound 337, N-(5-(3-(4-(Thiophen-2-yl)-1H-imidazo[4,5-c]pyridin-2-yl)-1H-pyrazolo [4,3-b]pyridin-5-yl)pyridin-3-yl)propionamide]",5.96,179,
30,"Cc1cn(-c2nccc3[nH]c(-c4n[nH]c5ccc(-c6cncc(NC(=O)C(C)(C)C)c6)nc45)nc23)cn1 [Compound 204, N-(5-(3-(4-(4-Methyl-1H-imidazol-1-yl)-1H-imidazo[4,5-c]pyridin-2-yl)-1H-pyrazolo[4,3-b]pyridin-5-yl)pyridin-3-yl)pivalamide]",< 5.00,70,8.1
10,"CCCCC(=O)Nc1cncc(-c2ccc3[nH]nc(-c4nc5c(-c6ccccn6)nccc5[nH]4)c3n2)c1 [Compound 159, N-(5-(3-(4-(Pyridin-2-yl)-1H-imidazo[4,5-c]pyridin-2-yl)-1H-pyrazolo[4,3-b]pyridin-5-yl)pyridin-3-yl)pentanamide]",5.39,113,
100,"c1cncc(-c2ccc3[nH]nc(-c4nc5c(-c6cccnc6)nccc5[nH]4)c3n2)c1 [Compound 88, 5-(Pyridin-3-yl)-3-(4-(pyridin-3-yl)-1H-imidazo[4,5-c]pyridin-2-yl)-1H-pyrazolo[4,3-b]pyridine]",< 5.00,70,22.2
30,"CCC(=O)Nc1cncc(-c2ccc3[nH]nc(-c4nc5c(N6CCCCC6)nccc5[nH]4)c3n2)c1 [Compound 169, N-(5-(3-(4-(Piperidin-1-yl)-1H-imidazo[4,5-c]pyridin-2-yl)-1H-pyrazolo [4,3-b]pyridin-5-yl)pyridin-3-yl)propionamide]",5.10,69,
2700,"Cc1ccncc1-c1ccc2[nH]nc(-c3nc4c(-c5ccncc5)nccc4[nH]3)c2n1 [Compound 117, 5-(4-Methylpyridin-3-yl)-3-(4-(pyridin-4-yl)-1H-imidazo[4,5-c]pyridin-2-yl)-1H-pyrazolo[4,3-b]pyridine]",< 5.00,53,0
10,"CC(C)(C)CC(=O)Nc1cncc(-c2ccc3[nH]nc(-c4nc5cnccc5[nH]4)c3n2)c1 [Compound 268, N-(5-(3-(1H-Imidazo[4,5-c]pyridin-2-yl)-1H-pyrazolo[4,3-b]pyridin-5-yl)pyridin-3-yl)-3,3-dimethylbutanamide]",< 5.00,54,0
,"CCNCc1cncc(-c2ccc3[nH]nc(-c4nc5c(-c6ccccn6)nccc5[nH]4)c3n2)c1 [Compound 146, N-((5-(3-(4-(Pyridin-2-yl)-1H-imidazo[4,5-c]pyridin-2-yl)-1H-pyrazolo[4,3-b]pyridin-5-yl)pyridin-3-yl)methyl)ethanamine]",5.98,28,
,"Cc1ccncc1-c1ccc2[nH]nc(-c3nc4c(-c5ccsc5)nccc4[nH]3)c2n1 [Compound 285, 5-(4-Methylpyridin-3-yl)-3-(4-(thiophen-3-yl)-1H-imidazo[4,5-c]pyridin-2-yl)-1H-pyrazolo[4,3-b]pyridine]",6.31,47,
100,"CN1CCN(c2nccc3[nH]c(-c4n[nH]c5ccc(-c6cncc(N)c6)nc45)nc23)CC1 [Compound 227, 5-(3-(4-(4-Methylpiperazin-1-yl)-1H-imidazo[4,5-c]pyridin-2-yl)-1H-pyrazolo[4,3-b]pyridin-5-yl)pyridin-3-amine]",< 5.00,135,22.5
300,"CCCC(=O)Nc1cncc(-c2ccc3[nH]nc(-c4nc5c(-c6ccncc6)nccc5[nH]4)c3n2)c1 [Compound 129, N-(5-(3-(4-(Pyridin-4-yl)-1H-imidazo[4,5-c]pyridin-2-yl)-1H-pyrazolo[4,3-b]pyridin-5-yl)pyridin-3-yl)butyramide]",< 5.00,70,0
10,"CC(C)C(=O)Nc1cncc(-c2ccc3[nH]nc(-c4nc5c(-c6ccccc6F)nccc5[nH]4)c3n2)c1 [Compound 65, N-(5-(3-(4-(2-fluorophenyl)-1H-imidazo[4,5-c]pyridin-2-yl)-1H-pyrazolo [4,3-b]pyridin-5-yl)pyridin-3-yl)isobutyramide]",< 5.00,140,4
7,"CCCC(=O)Nc1cncc(-c2ccc3[nH]nc(-c4nc5c(-c6ccsc6)nccc5[nH]4)c3n2)c1 [Compound 297, N-(5-(3-(4-(Thiophen-3-yl)-1H-imidazo[4,5-c]pyridin-2-yl)-1H-pyrazolo [4,3-b]pyridin-5-yl)pyridin-3-yl)butyramide]",< 5.00,358,16.1
30,"O=C(Nc1cncc(-c2ccc3[nH]nc(-c4nc5c(-c6ccc(Cl)s6)nccc5[nH]4)c3n2)c1)C1CCC1 [Compound 1056, N-(5-(3-(4-(5-Chlorothiophen-2-yl)-1H-imidazo[4,5-c]pyridin-2-yl)-1H-pyrazolo[4,3-b]pyridin-5-yl)pyridin-3-yl)cyclobutanecarboxamide]",5.65,60,
30,"Fc1cccc(-c2nccc3[nH]c(-c4n[nH]c5ccc(-c6cncc(CN7CCC(F)(F)C7)c6)nc45)nc23)c1 [Compound 26, 5-(5-((3,3-Difluoropyrrolidin-1-yl)methyl)pyridin-3-yl)-3-(4-(3-fluorophenyl)-1H-imidazo[4,5-c]pyridin-2-yl)-1H-pyrazolo[4,3-b]pyridine]",5.49,58,
